One data set has as its system hippocampal neurons. The data set can be described thus: Heavy metal toxicity in hippocampal cultures, neuronal viability (CFDA). The conditions noted are these: test concentration of metal ions 10 μM, medium without antioxidants. The text has this: All compounds were screened with dissociated hippocampal cultures derived from embryonic day 18 rats as the primary test system. With this preparation, primary neurons were used to test for prevention of heavy metal toxicity by the disclosed compounds. In brief, hippocampal tissue was obtained commercially through Brain Bits (Springfield, Ill.) and cultures prepared as previously described (Brewer, G. J. Serum-free B27/neurobasal medium supports differentiated growth of neurons from the striatum, substantia nigra, septum, cerebral cortex, cerebellum and dentate gyms, J. Neurosci. Res., 1995, 42, 674-683). The hippocampal neurons were platted at low density (10,000 cell/well) in a 96-well format and maintained in serum-free medium consisting of Neurobasal Medium supplemented with B27 and GlutaMAX (Gibco). Pre-coated poly-L-lysine coated plates are used because of the preferential adherence and survival of hippocampal neurons on this matrix support.
Heavy metal toxicity is associated with the occurrence of seizures (Mathie et al. Zinc and copper: pharmacological probes and endogenous modulators of neuronal excitability. Pharmacol. Ther. 2006, 111, 567-583). […] To establish the dose-dependency of test agents, day 18 hippocampal cultures were utilized to study the toxicity produced after treatment with the heavy metals and neuroprotection after treatment with test compounds. […] Prior to treatment, the B27/Neural Basal media of the cultures were replaced with B27 neural basal medium without antioxidants for 18 hours. […] Further, the removal of antioxidants in the medium was performed to obtain a significant and reproducible toxic signal for heavy metal treatment of the hippocampal neurons.
Toxicity produced by heavy metals is measured by decreases in neuronal viability. Carboxyfluorescein (CFDA) was used a vital stain for all cell toxicity and neuroprotection studies. With the use of the CytoFluor fluorimeter, the CFDA assay was employed to assess the viability of neurons. CFDA is a dye that becomes fluorescent upon cell entry and cleavage by cytosolic esterases (Petroski and Geller. Selective labeling of embryonic neurons cultures on astrocyte monolayers with 5(6)-carboxyfluorescein diacetate [CFDA]. J. Neurosci. Methods 1994, 52, 23-32). Neuronal specificity is obtained relative to astrocytes because the cleaved dye is extruded extracellularlly by glia with time, while dye in neurons remains intracellular.

Data set [1] has as its system Hippocampal Cultures. Put plainly: Neuroprotection from hydrogen peroxide (oxidative stress), CFDA assay. The conditions noted are these: Rattus norvegicus, read-out: NP from Hydrogen Peroxide CFDA EC50. The class given is cell-based. The text has this:
(§1) Cell cultures: All compounds are screened with dissociated hippocampal cultures derived from embryonic day 18 rats as the primary test system. With this preparation, primary neurons are used to test for toxicity as well as neuroprotection in a highly relevant experimental system to epilepsy. In brief, hippocampal tissue are obtained commercially through Brain Bits (Springfield, Ill.) and cultures prepared as previously described by Brewer (Brewer, G. J. Serum-free B27/neurobasal medium supports differentiated growth of neurons from the striatum, substantia nigra, septum, cerebral cortex, cerebellum and dentate gyms, J. Neurosci. Res. 1995, 42, 674-683). The hippocampal neurons are platted at low density (10,000 cell/well) in a 96-well format and maintained in serum-free medium consisting of Neurobasal Medium supplemented with B27 and GlutaMAX (Gibco). Pre-coated poly-L-lysine coated plates are used because of the preferential adherence and survival of hippocampal neurons on this matrix support.
(§2) Potent neuroprotection is the distinguishing characteristic that separates this program's anticonvulsants from all other commercial drugs for epilepsy. The experimental details and the rationale for the implemented assays are essential in differentiating these compounds from that of others. The central objective of all neuroprotective assays was their relevancy to excitotoxicity and oxidative stress related to epilepsy. Both the amount of glutamate and hydrogen peroxide used in the assays, as well as the time of treatment and duration of the experiment, were designed to be relevant to epilepsy. Further, all time parameters employed in these studies were empirically determined to be within the limits of reversible toxic events, yet using amounts of glutamate and hydrogen peroxide that were relevant to the disease. In regard to glutamate toxicity, a critical feature was the duration of treatment of the hippocampal neurons. The rational for using a short 5 min treatment with glutamate was based on the observation of Randall and Thayer (Randall, R. D.; Thayer, S. A. Glutamate-induced calcium transient triggers calcium overload and neurotoxicity in rat hippocampal neurons, J. Neurosci. 1992, 12, 1882-1895). […] The rationale is that this intense burst of glutamate and resulting calcium overload is relevant to seizures and therefore was important data to capture in the screening assay. The amount of glutamate (30 μM) employed in our screening was based on the basal levels of glutamate observed in microdialysis measurements of hippocampus from epileptogenic patients (Cavus et al. Decreased hippocampal volume on MRI is associated with increased extracellular glutamate in epilepsy patients, Epilepsia, 2008, 49, 1358-1366). In regard to hydrogen peroxide, the amount employed (10 μM) was detected in the hippocampus of rats after kainate-induced status epilepticus (Jarrett et. al., Mitochondrial DNA damage and impaired base excision repair during epileptogenesis, Neurobiol. Dis. 2008, 30, 130-138). To produce neural damage and death with these amounts of glutamate and hydrogen peroxide, the cultures were changed to a medium with significant depletion of antioxidant components in the defined medium supplement B-27 just prior to treatment with the compounds. This was performed to obtain a significant and reproducible toxic signal in the hippocampal neurons and because loss of antioxidant control may be a component of epileptogenesis (Waldbaum and Patel, Mitochondria, oxidative stress and temporal lobe epilepsy, Epilepsy Res. 2010 88, 23-45; Wu et al., Mitochondrial DNA mutation-elicited oxidative stress, oxidative damage, and altered gene expression in cultured cells of patients with MERRF syndrome, Mol. Neurobiol. 2010, 41, 256-266). Neuroprotection studies with hydrogen peroxide were conducted with cultures that were between day 12 and day 18. Studies of neuroprotection glutamate were conducted between day 19 and day 22. […]

In data set [2] the test system is Hippocampal Cultures. The data set can be described thus: Neuroprotection from hydrogen peroxide (oxidative stress), propidium iodide assay. The class given is cell-based. The conditions noted are these: Rattus norvegicus, read-out: NP from Hydrogen Peroxide PI EC50.
From the text: as §1, §2

Data set [3] deals with Hippocampal Cultures. Put plainly: Neuroprotection from glutamate excitotoxicity, propidium iodide (cell death) assay. The class given is cell-based. The conditions noted are these: Rattus norvegicus, read-out: NP from Glutamate PI EC50.
From the text: as §1, §2

Data set [4] relates to Hippocampal Cultures. The data set can be described thus: Neuroprotection from glutamate excitotoxicity, CFDA (neuronal viability) assay. The class given is cell-based. The conditions noted are these: Rattus norvegicus, read-out: NP from Glutamate CFDA EC50.
From the text: as §1
as §2, with “compounds.” for “compounds. This was performed to obtain a significant and reproducible toxic signal in the hippocampal neurons and because loss of antioxidant control may be a component of epileptogenesis (Waldbaum and Patel, Mitochondria, oxidative stress and temporal lobe epilepsy, Epilepsy Res. 2010 88, 23-45; Wu et al., Mitochondrial DNA mutation-elicited oxidative stress, oxidative damage, and altered gene expression in cultured cells of patients with MERRF syndrome, Mol. Neurobiol. 2010, 41, 256-266). Neuroprotection studies with hydrogen peroxide were conducted with cultures that were between day 12 and day 18. Studies of neuroprotection glutamate were conducted between day 19 and day 22.”

The subject of the next data set is 6-Hz psychomotor seizure. Put plainly: 6 Hz psychomotor seizure test, mouse. The class given is in vivo, mice. The conditions noted are these: ip. The method, then:
Methods to measure anticonvulsant activity: All tests were conducted by the Anticonvulsant Screening Program (ASP) of the National Institute of Neurological Disease and Stroke at the National Institutes of Health. The 6 Hz Seizure Test: Compounds were further tested in the 6-Hz psychomotor seizure model. (Barton et al. Pharmacological characterization of the 6 Hz psychomotor seizure model of partial epilepsy. Epilepsy Res. 2001, 47, 217-227). This model is used to detect […] that may be useful for the treatment of therapy-resistant partial seizures. For this test, an alternative electrical stimulation paradigm is used with a low frequency (6 Hz), long duration (3 seconds) corneal stimulation. The seizure evoked by this low frequency stimulation is characterized by immobility, forelimb clonus, Straub tail and facial automatisms. Mice are tested from 15 min to 4 hours following an intraperitoneal dose of 100 mg/kg. Abolition of the clonic seizures indicates the ability of a compound to prevent partial or psychomotor seizures.

For data set [5], the system named is pentylenetetrazol-induced clonic seizures. The data set can be described thus: Subcutaneous pentylenetetrazol seizure test (scPTZ), mouse. The class given is in vivo, Carworth Farms No. 1 mice. The conditions noted are these: pentylenetetrazol 85 mg/kg s.c., test compound intraperitoneally, read-out: Mouse PTZ ED50, s.c. As for the experimental part: Methods to measure anticonvulsant activity: All tests were conducted by the Anticonvulsant Screening Program (ASP) of the National Institute of Neurological Disease and Stroke at the National Institutes of Health. The subcutaneous pentylenetetrazol (metrazol) seizure test (scPTZ). This model primarily identifies compounds that raise seizure threshold. The behavioral seizure produced is not typical of absence epilepsy but clonic in nature. With some minor exceptions, the pharmacological profile of the scPTZ seizure model is consistent with the human condition. The scPTZ test utilizes a dose of pentylenetetrazol (85 mg/kg in Carworth Farms No. 1 mice and 70 mg/kg in Sprague-Dawley rats). This produces clonic seizures lasting for a period of at least five seconds in 97 percent of animals tested. At the anticipated time of testing the convulsant is administered subcutaneously. The test compound is administered intraperitoneally in mice and orally in rats. Animals are observed over a 30 minute period. Absence of clonic spasms in the observed time period indicates a compound's ability to abolish the effect of pentylenetetrazol on seizure threshold (Swinyard E A. Laboratory evaluation of antiepileptic drugs: review of laboratory methods. Epilepsia, 1969, 10, 107-119).

Data set [6] deals with MES-induced seizure spread. The data set can be described thus: Maximal electroshock seizure (MES) test, rat. The class given is in vivo, rats. The conditions noted are these: po. The method, then: (§3) Seizure-related assays, Maximal electroshock test: The most definitive assay for anti-seizure activity is the maximal electroshock (MES) test (Swinyard, E. A. Laboratory evaluation of antiepileptic drugs: review of laboratory methods, Epilepsia, 1969, 10, 107-119). […] With both rodent assays, the duration of action is of high importance as well as the potency of the response.
(§4) Methods to measure anticonvulsant activity: All tests were conducted by the Anticonvulsant Screening Program (ASP) of the National Institute of Neurological Disease and Stroke at the National Institutes of Health.
(§5) The Maximal Electroshock Seizure (MES) or Maximal Seizure Pattern Test: The MES is a model for generalized tonic-clonic seizures (Putnam and Merritt. Experimental determination of the anticonvulsant properties of some phenyl derivatives. Science 1937, 85, 113-118). It is highly reproducible with consistent endpoints. The behavioral and electrographic seizures generated in this model are consistent with the human disorder. This model identifies those compounds which prevent seizure spread.
(§6) In the MES test, an electrical stimulus of 0.2 s in duration (50 mA in mice and 150 mA in rat at 60 Hz) is delivered via corneal electrodes primed with an electrolyte solution containing an anesthetic agent. Mice are tested at 30 minutes and 4 hours following doses of 30, 100 and 300 mg/kg of test compound. Test compounds are administered intraperitoneally to the mice. Rats are tested at time intervals between 0.25 and 4 hours following a standard oral dose of 30 mg/kg. Abolition of the hindlimb tonic extensor component indicates the test compound's ability to inhibit MES-induced seizure spread.
In general terms: Protection in the maximal electroshock model is a classic sign of anticonvulsant action.

Data set [7] has as its system MES-induced seizure spread. Put plainly: Maximal electroshock seizure (MES) test, mouse. The class given is in vivo, mice. As for the experimental part: as §3, §4, §5, §6
Setting [8] is: 10 μM hydrogen peroxide, hippocampal cultures, 4 hour test period.
Setting [9] is: 30 μM glutamate 5 min, hippocampal cultures, 4 hour test period.

For `O.O.O.O.O.O.[Cl-].[Cl-].[Co+2]` [Cobalt Chloride hexahydrate], the “Loss of neuronal viability from metal” value in the data set with hippocampal neurons is recorded as 36%.

As for `CC(=O)[O-].CC(=O)[O-].O.[Cu+2]` [Copper Acetate monohydrate], the “Loss of neuronal viability from metal” value in the data set with hippocampal neurons was 47%.

Broadly, the EC50 is the concentration that produces a half-maximal response. As for `NS(=O)(=O)NCC(F)c1ccccc1F` (stereo not drawn) [Example 3, 2-Fluoro-2-(2-fluoro-phenyl)-ethylsulfamide], the EC50 with Hippocampal Cultures [1] (4 h) worked out at 0.01 nM; with Hippocampal Cultures [2] (4 h), 0.01 nM; in the data set with Hippocampal Cultures [3], 0.1 nM; in the data set on Hippocampal Cultures [4], 3 nM.

Take `COc1ccccc1C(F)(F)CNS(N)(=O)=O` [Example 4, 2,2-Difluoro-2-(2-methoxyphenyl)-ethyl-1-sulfamide]: the EC50 in the data set with Hippocampal Cultures [1] (4 h) is 0.1 nM; with Hippocampal Cultures [2] (4 h) it was 1 nM; in the data set with Hippocampal Cultures [3], 1 nM.

For orientation: ED50 means the midpoint of the dose-response relation. Turning to `NS(=O)(=O)NCC(F)(F)c1ccccc1` [Example 5, 2,2-difluoro-2-phenyl-ethyl-1-sulfamide], the ED50 in the data set with 6-Hz psychomotor seizure amounted to 16 mg/kg; in [5], 41 mg/kg; in data set [6], 26 mg/kg; in data set [7] (ip, mouse), 49 mg/kg. Further, the EC50 in the data set on Hippocampal Cultures [1] (setting [8]) came out at 0.1 nM; in the data set with Hippocampal Cultures [2] (setting [8]), 0.03 nM; with Hippocampal Cultures [3] (setting [9]) it was 0.1 nM; in the data set with Hippocampal Cultures [4] (setting [9]) it was 0.1 nM. The “Duration of action MES” value in data set [7] (Mouse Maximal Electroshock (MES) test at 100 mg/kg, i.p.) stood at 4 h.

Regarding `NS(=O)(=O)NCC(F)(F)c1csc2ccccc12` [Example 6, 2-Benzo[b]thiophen-3-yl-2,2-difluoro-ethyl sulfamide], the EC50 with Hippocampal Cultures [1] (4 h) is 0.1 nM; with Hippocampal Cultures [2] (4 h) it was 1 nM; with Hippocampal Cultures [3] it was 0.1 nM; in the data set with Hippocampal Cultures [4], 0.1 nM.

Turning to `O.O.O.O.O.O.O=S(=O)([O-])[O-].[Fe+2]` [Iron sulfate hexahydrate], the “Loss of neuronal viability from metal” value in the data set with hippocampal neurons is on record as 31%.

For `O.O.O.O.O.O.[Cl][Ni][Cl]` [Nickel Chloride hexahydrate], the “Loss of neuronal viability from metal” value with hippocampal neurons was 33%.

Values taken from patent US20130253022A1 (FOX CHASE CHEMICAL DIVERSITY CENTER, INC., priority 2010, published 2013).
